The values that follow are results of earlier work, collected in patent US20080103122A1, “PHARMACEUTICAL COMBINATIONS FOR LIPID MANAGEMENT AND IN THE TREATMENT OF ATHEROSCLEROSIS AND HEPATIC STEATOSIS” (Schering Corporation, priority 2006, published 2008).

The data set concerns atherosclerotic plaques. The note with it: mice; Zaiss et al., Circulation 100 (18 Suppl. I): 255 (1999).

For the molecule `Cc1cc(C)c2c3ccccc3n(Cc3ccc([C@@H](C(=O)N[C@@H](CO)c4ccccc4)C4CCCC4)cc3)c2n1` [implitiapide, 2,2-(S)-cyclopentyl-2-{[4-(2,4-dimethyl-alpha-carbolin-9-yl)methyl]phenyl}acetic acid-(R)-phenyl-glycinol-amide], the “formation of atherosclerotic plaques” value is “prevents the formation of atherosclerotic plaques”.
